Data set [1] is described as follows: Compound solubility in water. Type of data set: physicochemical.
In data set [2] the target is T1, glucocerebrosidase (Gcase) (Homo sapiens, UniProt P04062).
T1 sequence (P04062 40-536): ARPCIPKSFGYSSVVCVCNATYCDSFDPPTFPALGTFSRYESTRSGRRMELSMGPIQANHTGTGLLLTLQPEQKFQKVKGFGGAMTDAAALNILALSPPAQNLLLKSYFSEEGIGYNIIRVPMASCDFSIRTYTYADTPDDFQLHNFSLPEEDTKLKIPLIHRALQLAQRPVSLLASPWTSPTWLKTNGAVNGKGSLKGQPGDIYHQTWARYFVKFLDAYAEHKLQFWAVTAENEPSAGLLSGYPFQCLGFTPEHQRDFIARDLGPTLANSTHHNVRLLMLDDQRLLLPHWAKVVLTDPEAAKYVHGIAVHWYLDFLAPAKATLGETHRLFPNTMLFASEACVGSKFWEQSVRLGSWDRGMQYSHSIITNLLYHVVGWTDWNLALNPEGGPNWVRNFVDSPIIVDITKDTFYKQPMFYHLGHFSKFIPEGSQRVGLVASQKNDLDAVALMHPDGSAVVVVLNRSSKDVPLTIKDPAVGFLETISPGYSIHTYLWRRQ
The experiment in a line: Glucocerebrosidase (Gcase) activation assay, 4-methylumbelliferyl-beta-D-glucopyranoside substrate, with saposin C. Type of data set: biochemical. Conditions: for Percent Gcase Activation, 1 μM Test Compound / activation at 1 µM: test compound at 1.0 μM; for activation at 0.1 µM: read-out: Percent Gcase Activation, 0.1 μM Test Compound; for activation at 1 µM: read-out: Percent Gcase Activation, 1 μM Test Compound. The protocol:
The ability of exemplary compounds to activate glucocerebrosidase (Gcase) was measured.
A 484 μL aliquot of a 1.0 mg/mL solution of phosphatidylserine (PS) (Sigma P7769) in chloroform was evaporated under a stream of nitrogen for 1 hour. The lipid film was dissolved over 4 minutes of vigorous vortexing in 40 mL of 176 mM K2HPO4/50 mM citric acid (pH 4.7) containing 7.5 μL of triton X-100, resulting in a mixed micellar preparation with a composition of 0.32 mM triton and 0.37 mol % PS. 4-Methylumbelliferyl-beta-D-glucopyranoside (ACROS-337025000) was dissolved in the micellar solution to a final concentration of 2 mM for use as the reaction substrate.
Test compounds were diluted to the desired concentrations with dimethylsulfoxide (DMSO) from 10 mM stocks, and 0.41 μL of the DMSO compound mixture was added to 100 μL of micellar solution containing 10 nM GCase and 100 nM saposin C (Enzo ALX-201-262-C050). Pre-incubation was allowed to occur for 30 minutes at room temperature, after which the reaction was initiated by combining 25 μL of substrate solution with 25 μL of compound/GCase/saposin mixture. The reaction proceeded for 15 minutes at room temperature and was stopped by adding 150 μL of 1M glycine, pH 12.5. The endpoint of the reaction was monitored by measuring fluorescence intensity (excitation: 365 nm; emission: 440 nm) on a SpectraMax i3 instrument (Molecular Devices). Test compounds were screened at 1.0 and 0.1 μM final concentration, and subsequent 8-point dose response curves were obtained using 3-fold dilutions from a maximum final concentration of 5 μM.

Converted amounts (≈) assume the structure as drawn.

For `Cc1cc(C)n2cnc(C(=O)NC(C)C3CCCCC3)c2n1` (stereo not shown) [III-10], the “Compound Solubility in Water” value in data set [1] stood at 0.023 mg/mL. Besides, the “Percent Gcase Activation, 0.1 μM Test Compound” value in data set [2] (test compound at 0.1 μM) is given as “** (Gcase activation in the range of 10% up to 20%)”. In data set [2], the “Percent Gcase Activation, 1 μM Test Compound” value is listed as “+++ (Gcase activation greater than 60%)”.

As to `Cc1cc(C)n2cnc(C(=O)NC(C)C3CCCCC3)c2n1` (stereo not shown) [III-9], in data set [2], the “Percent Gcase Activation, 1 μM Test Compound” value is on record as “+++ (Gcase activation greater than 60%)”.

As to `Cc1cc(N)nc2c(C(=O)NC(c3ccc(F)cc3)C(F)(F)F)ncn12` (stereo not shown) [III-17], in data set [1], the solubility was found to be 0.0009 mg/mL (≈ 2.45 µM). For the same compound, the activation at 0.1 µM in data set [2] (test compound at 0.1 μM) was > 20%. Further, the activation at 1 µM in data set [2] was > 60%.

For `Cc1cc(Oc2ccc(F)cc2)nc2c(C(=O)N[C@@H](C)C3CC3)ncn12` [III-77], in data set [1], the concentration in solution (solubility) came to 0.0106 mg/mL (≈ 29.9 µM). For the same compound, the activation at 0.1 µM in data set [2] (test compound at 0.1 μM) was < 10%. In data set [2], the activation at 1 µM is 30 to 60%.

A word on the solubility: it is the concentration that dissolves in the medium under given conditions. Higher therefore signals much dissolved substance.

Values taken from patent publication US10787454B2, “Imidazo[1,5-a]pyrimidinyl carboxamide compounds and their use in the treatment of medical disorders” (BIAL-BioTech Investments, Inc., priority 2016, dated 2020).
